Measured values reported in patent US20240376084A1, “INHIBITORS OF ALPHA-HEMOLYSIN OF STAPHYLOCOCCUS AUREUS” (Helmholtz-Zentrum Fur Infektionsforschung GmbH, priority 2021, published 2024).

Columns and labels:
[1] = target: hemolysin alpha from Staphylococcus aureus (Staphylococcus aureus, UniProt P09616); experiment: cell-based
[2] = target: S. aureus Alpha hemolysin (Staphylococcus aureus, UniProt P09616); experiment: cell-based; conditions: A549-LDH Assay activity
S. aureus Alpha hemolysin, sequence (P09616 27-319 limits assumed): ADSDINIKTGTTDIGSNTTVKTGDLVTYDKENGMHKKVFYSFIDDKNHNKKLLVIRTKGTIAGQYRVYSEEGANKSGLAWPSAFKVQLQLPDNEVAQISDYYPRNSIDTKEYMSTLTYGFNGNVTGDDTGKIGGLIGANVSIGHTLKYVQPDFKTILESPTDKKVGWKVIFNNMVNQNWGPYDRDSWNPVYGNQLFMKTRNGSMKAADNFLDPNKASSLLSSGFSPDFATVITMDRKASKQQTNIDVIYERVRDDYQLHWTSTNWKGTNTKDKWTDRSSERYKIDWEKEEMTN

hemolysin alpha from Staphylococcus aureus, sequence (P09616 27-319 limits assumed): as above

| SMILES | IC50 [1] | EC50 [2] | EC50 [1] |
| --- | --- | --- | --- |
| Cc1ccc(-c2ccc(NS(=O)(=O)c3cc4[nH]c(=O)c(=O)[nH]c4cc3C)cc2Cl)cc1 [Compound 38, N-(2-chloro-4′-methyl-[1,1′-biphenyl]-4-yl)-7-methyl-2,3-dioxo-1,2,3,4-tetrahydroquinoxaline-6-sulfonamide] | 30 to 100 nM | 100 to 1000 nM | – |
| O=c1[nH]c2cc(F)c(S(=O)(=O)Nc3ccc(OC(F)(F)F)cc3)cc2[nH]c1=O [Compound 147, 7-fluoro-2,3-dioxo-N-(4-(trifluoromethoxy)phenyl)-1,2,3,4-tetrahydroquinoxaline-6-sulfonamide] | 100 to 1000 nM | 100 to 1000 nM | – |
| Cc1cc2[nH]c(=O)c(=O)[nH]c2cc1S(=O)(=O)Nc1ccc(-n2ccnc2)c(Cl)c1 [Compound 285, N-(3-chloro-4-imidazol-1-yl-phenyl)-7-methyl-2,3-dioxo-1,4-dihydroquinoxaline-6-sulfonamide] | – | 100 to 1000 nM | 100 to 1000 nM |
| O=c1[nH]c2cc(Cl)c(S(=O)(=O)Nc3ccc(-c4cccc(Cl)c4)c(Cl)c3)cc2[nH]c1=O [Compound 35, 7-chloro-N-(2,3′-dichloro-[1,1′-biphenyl]-4-yl)-2,3-dioxo-1,2,3,4-tetrahydroquinoxaline-6-sulfonamide] | < 30 nM | 100 to 1000 nM | – |
| O=c1[nH]c2cc(Cl)c(S(=O)(=O)Nc3ccc(-c4ccc5c(c4)NCC5)c(Cl)c3)cc2[nH]c1=O [Compound 46, 7-chloro-N-(3-chloro-4-(indolin-6-yl)phenyl)-2,3-dioxo-1,2,3,4-tetrahydroquinoxaline-6-sulfonamide] | 30 to 100 nM | 100 to 1000 nM | – |
| CC(C)c1cc2[nH]c(=O)c(=O)[nH]c2cc1S(=O)(=O)Nc1ccc(-c2ccsc2)c(Cl)c1 [Compound 100, N-(3-chloro-4-(thiophen-3-yl)phenyl)-7-isopropyl-2,3-dioxo-1,2,3,4-tetrahydroquinoxaline-6-sulfonamide] | 100 to 1000 nM | 1000 to 6000 nM | – |
| Cc1cc2[nH]c(=O)c(=O)[nH]c2cc1S(=O)(=O)Nc1ccc(-c2cccc(N3CCCC3)c2)c(Cl)c1 [Compound 6, N-(2-chloro-3′-(pyrrolidin-1-yl)-[1,1′-biphenyl]-4-yl)-7-methyl-2,3-dioxo-1,2,3,4-tetrahydroquinoxaline-6-sulfonamide] | < 30 nM | 100 to 1000 nM | – |
| Cc1cc2[nH]c(=O)c(=O)[nH]c2cc1S(=O)(=O)Nc1ccc2c(c1)CCCC2 [Compound 54, 7-methyl-2,3-dioxo-N-(5,6,7,8-tetrahydronaphthalen-2-yl)-1,2,3,4-tetrahydroquinoxaline-6-sulfonamide] | 30 to 100 nM | 100 to 1000 nM | – |
| Cc1cc2[nH]c(=O)c(=O)[nH]c2cc1S(=O)(=O)Nc1ccc(-c2cccc(Br)c2)c(Cl)c1 [Compound 310, N-[4-(3-bromophenyl)-3-chloro-phenyl]-7-methyl-2,3-dioxo-1,4-dihydroquinoxaline-6-sulfonamide] | – | 100 to 1000 nM | < 30 nM |
| CC(C)c1cc2[nH]c(=O)c(=O)[nH]c2cc1S(=O)(=O)Nc1ccc(C(F)(F)F)cc1 [Compound 152, 7-isopropyl-2,3-dioxo-N-(4-(trifluoromethyl)phenyl)-1,2,3,4-tetrahydroquinoxaline-6-sulfonamide] | 100 to 1000 nM | 30 to 100 nM | – |
| CN(C)c1cccc(-c2ccc(NS(=O)(=O)c3cc4[nH]c(=O)c(=O)[nH]c4cc3Cl)cc2Cl)c1 [Compound 9, 7-chloro-N-(2-chloro-3′-(dimethylamino)-[1,1′-biphenyl]-4-yl)-2,3-dioxo-1,2,3,4-tetrahydroquinoxaline-6-sulfonamide] | < 30 nM | 100 to 1000 nM | – |
| O=c1[nH]c2cc(Cl)c(S(=O)(=O)Nc3ccc(C(F)(F)F)cc3)cc2[nH]c1=O [Compound 93, 7-chloro-2,3-dioxo-N-(4-(trifluoromethyl)phenyl)-1,2,3,4-tetrahydroquinoxaline-6-sulfonamide] | 100 to 1000 nM | 100 to 1000 nM | – |
| CCCc1ccc(NS(=O)(=O)c2cc3[nH]c(=O)c(=O)[nH]c3cc2Cl)cc1 [Compound 55, 7-chloro-2,3-dioxo-N-(4-propylphenyl)-1,2,3,4-tetrahydroquinoxaline-6-sulfonamide] | 30 to 100 nM | 30 to 100 nM | – |
| Cc1cc2[nH]c(=O)c(=O)[nH]c2cc1S(=O)(=O)Nc1cnc(-c2cncc(Cl)c2)c(Cl)c1 [Compound 279, N-[5-chloro-6-(5-chloro-3-pyridyl)-3-pyridyl]-7-methyl-2,3-dioxo-1,4-dihydroquinoxaline-6-sulfonamide] | – | 100 to 1000 nM | 100 to 1000 nM |
| Cc1cc2[nH]c(=O)c(=O)[nH]c2cc1S(=O)(=O)Nc1ccc(-c2cccc(C(N)=O)c2)c(Cl)c1 [Compound 245, 3-[2-chloro-4-[(7-methyl-2,3-dioxo-1,4-dihydroquinoxalin-6-yl)sulfonylamino]phenyl] benzamide] | – | 30 to 100 nM | < 30 nM |
| O=c1[nH]c2cc(F)c(S(=O)(=O)Nc3ccc(-c4ccc5c(c4)NCC5)c(Cl)c3)cc2[nH]c1=O [Compound 10, N-(3-chloro-4-(indolin-6-yl)phenyl)-7-fluoro-2,3-dioxo-1,2,3,4-tetrahydroquinoxaline-6-sulfonamide] | < 30 nM | 100 to 1000 nM | – |
| Cc1cc(NS(=O)(=O)c2cc3[nH]c(=O)c(=O)[nH]c3cc2F)ccc1-c1ccccc1 [Compound 33, 7-fluoro-N-(2-methyl-[1,1′-biphenyl]-4-yl)-2,3-dioxo-1,2,3,4-tetrahydroquinoxaline-6-sulfonamide] | < 30 nM | 30 to 100 nM | – |
| Cc1cc2[nH]c(=O)c(=O)[nH]c2cc1S(=O)(=O)Nc1cc(Cl)c(-c2cccc(Cl)c2)cn1 [Compound 210, N-(4-chloro-5-(3-chlorophenyl)pyridin-2-yl)-7-methyl-2,3-dioxo-1,2,3,4-tetrahydroquinoxaline-6-sulfonamide] | – | 100 to 1000 nM | 30 to 100 nM |
| Cc1cc2[nH]c(=O)c(=O)[nH]c2cc1S(=O)(=O)Nc1ccc(-c2ccncc2)cc1 [Compound 127, 7-methyl-2,3-dioxo-N-(4-(pyridin-4-yl)phenyl)-1,2,3,4-tetrahydroquinoxaline-6-sulfonamide] | 100 to 1000 nM | 100 to 1000 nM | – |
| Cc1cc2[nH]c(=O)c(=O)[nH]c2cc1S(=O)(=O)Nc1ccc(C2COC2)cc1 [Compound 384, 7-methyl-N-[4-(oxetan-3-yl)phenyl]-2,3-dioxo-1,4-dihydroquinoxaline-6-sulfonamide] | – | 100 to 1000 nM | 1000 to 3500 nM |
| Cc1cc2[nH]c(=O)c(=O)[nH]c2cc1S(=O)(=O)Nc1ccc(-c2ccc(Cl)cc2)c(Cl)c1 [Compound 8, N-(2,4′-dichloro-[1,1′-biphenyl]-4-yl)-7-methyl-2,3-dioxo-1,2,3,4-tetrahydroquinoxaline-6-sulfonamide] | < 30 nM | 100 to 1000 nM | – |
| Cc1cc2[nH]c(=O)c(=O)[nH]c2cc1S(=O)(=O)Nc1ccc(C2CCCCC2)c(Br)c1 [Compound 306, N-(3-bromo-4-cyclohexylphenyl)-7-methyl-2,3-dioxo-1,2,3,4-tetrahydroquinoxaline-6-sulfonamide] | – | 100 to 1000 nM | 30 to 100 nM |
| Cc1cc2[nH]c(=O)c(=O)[nH]c2cc1S(=O)(=O)Nc1ccc(-c2ccc3c(c2)OCCO3)c(Cl)c1 [Compound 259, N-[3-chloro-4-(2,3-dihydro-1,4-benzodioxin-6-yl)phenyl]-7-methyl-2,3-dioxo-1,4-dihydroquinoxaline-6-sulfonamide] | – | 100 to 1000 nM | < 30 nM |
